Source: patent US10167262B2, “Herbicidal substituted 3-arylpyrazoles” (FMC CORPORATION, priority 2014, dated 2019)

Columns and labels:
Format in all cases: in vivo
[1] = system: winter barley (Hordeum vulgare); test: Test C postemergence greenhouse test, plant response rating 0-100; details: for Plant response rating, Barley: scale 0 to 100
Method in brief: (§1)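 Scores run from 0, meaning no effect, to 100, meaning complete control, and come from visual comparison with untreated controls. Treatment was a postemergence application to plants 2–18 cm tall. Assessment followed 13 to 15 days of greenhouse growth.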

[2] = system: windgrass (Apera spica-venti); test: as above; details: for Plant response rating, Windgrass: scale 0 to 100
Method in brief: as §1

[3] = system: ragweed (common ragweed, Ambrosia elatior); test: Test C pre-/postemergence greenhouse test, plant response rating 0-100; details: Postemergence; for Plant response rating, Ragweed: scale 0 to 100
Method in brief: (§2)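 Pre- and postemergence greenhouse test: seeds sown in loam/sand and treated preemergence, or plants at 2–18 cm (1- to 4-leaf stage) in peat-based medium sprayed postemergence, with compounds in non-phytotoxic solvent plus surfactant. Visual rating versus untreated controls after 13–15 days, 0 (no effect) to 100 (complete control).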

[4] = system: johnsongrass (Sorghum halepense); test: as above; details: Postemergence; for Plant response rating, Johnsongrass: scale 0 to 100
Method in brief: as §2

[5] = system: galium (catchweed bedstraw, Galium aparine); test: as above; details: Postemergence; for Plant response rating, Galium: scale 0 to 100
Method in brief: as §2

[6] = system: lambsquarters (Chenopodium album); test: as above; details: Postemergence; for Plant response rating, Lambsquarters: scale 0 to 100
Method in brief: as §2

[7] = system: velvetleaf (Abutilon theophrasti); test: as above; details: Postemergence; for Plant response rating, Velvetleaf: scale 0 to 100
Method in brief: as §2

[8] = system: blackgrass (Alopecurus myosuroides); test: as above; details: Postemergence; for Plant response rating, Blackgrass: scale 0 to 100
Method in brief: as §2

[9] = system: corn (Zea mays); test: as above; details: Postemergence; for Plant response rating, Corn: scale 0 to 100
Method in brief: as §2

[10] = system: pigweed (Amaranthus retroflexus); test: as above; details: Postemergence; for Plant response rating, Pigweed: scale 0 to 100
Method in brief: as §2

[11] = system: winter wheat (Triticum aestivum); test: as above; details: Postemergence; for Plant response rating, Wheat: scale 0 to 100
Method in brief: as §2

[12] = system: large (Lg) crabgrass (Digitaria sanguinalis); test: as above; details: Postemergence; for Plant response rating, Crabgrass, Large: scale 0 to 100
Method in brief: as §2

[13] = system: morningglory (Ipomoea coccinea); test: as above; details: Postemergence; for Plant response rating, Morningglory: scale 0 to 100
Method in brief: as §2

[14] = system: yellow nutsedge (Cyperus esculentus); test: as above; details: Postemergence; for Plant response rating, Nutsedge, Yellow: scale 0 to 100
Method in brief: as §2

Fc1cccc(NN=C(c2ccccc2)c2c[nH]nc2-c2cc(Cl)cc(Cl)c2)c1 [Compound 58]
Plant response rating (0 to 100), Barley ([1]; 62 g ai/ha): 0 | Plant response rating (0 to 100), Barley ([1]; 125 g ai/ha): 0 | Plant response rating, Barley ([1]; 250 g ai/ha): 0 | Plant response rating, Barley ([1]; 500 g ai/ha): 0 | Plant response rating (0 to 100), Windgrass ([2]; 62 g ai/ha): 0 | Plant response rating (0 to 100), Windgrass ([2]; 125 g ai/ha): 0 | Plant response rating, Windgrass ([2]; 250 g ai/ha): 0 | Plant response rating, Windgrass ([2]; 500 g ai/ha): 0 | Plant response rating (0 to 100), Ragweed ([3]; 62 g ai/ha): 10 | Plant response rating (0 to 100), Ragweed ([3]; 125 g ai/ha): 40 | Plant response rating, Ragweed ([3]; 250 g ai/ha): 50 | Plant response rating, Ragweed ([3]; 500 g ai/ha): 65 | Plant response rating (0 to 100), Johnsongrass ([4]; 62 g ai/ha): 0 | Plant response rating (0 to 100), Johnsongrass ([4]; 125 g ai/ha): 25 | Plant response rating, Johnsongrass ([4]; 250 g ai/ha): 25 | Plant response rating, Johnsongrass ([4]; 500 g ai/ha): 25 | Plant response rating (0 to 100), Galium ([5]; 62 g ai/ha): 0 | Plant response rating (0 to 100), Galium ([5]; 125 g ai/ha): 0 | Plant response rating, Galium ([5]; 250 g ai/ha): 0 | Plant response rating, Galium ([5]; 500 g ai/ha): 5 | Plant response rating (0 to 100), Lambsquarters ([6]; 62 g ai/ha): 70 | Plant response rating (0 to 100), Lambsquarters ([6]; 125 g ai/ha): 100 | Plant response rating, Lambsquarters ([6]; 250 g ai/ha): 100 | Plant response rating, Lambsquarters ([6]; 500 g ai/ha): 100 | Plant response rating (0 to 100), Velvetleaf ([7]; 62 g ai/ha): 60 | Plant response rating (0 to 100), Velvetleaf ([7]; 125 g ai/ha): 65 | Plant response rating, Velvetleaf ([7]; 250 g ai/ha): 70 | Plant response rating, Velvetleaf ([7]; 500 g ai/ha): 75 | Plant response rating (0 to 100), Blackgrass ([8]; 62 g ai/ha): 0 | Plant response rating (0 to 100), Blackgrass ([8]; 125 g ai/ha): 0 | Plant response rating, Blackgrass ([8]; 250 g ai/ha): 0 | Plant response rating, Blackgrass ([8]; 500 g ai/ha): 0 | Plant response rating (0 to 100), Corn ([9]; 62 g ai/ha): 0 | Plant response rating (0 to 100), Corn ([9]; 125 g ai/ha): 5 | Plant response rating, Corn ([9]; 250 g ai/ha): 5 | Plant response rating, Corn ([9]; 500 g ai/ha): 5 | Plant response rating (0 to 100), Pigweed ([10]; 62 g ai/ha): 100 | Plant response rating (0 to 100), Pigweed ([10]; 125 g ai/ha): 100 | Plant response rating, Pigweed ([10]; 250 g ai/ha): 100 | Plant response rating, Pigweed ([10]; 500 g ai/ha): 100 | Plant response rating (0 to 100), Wheat ([11]; 62 g ai/ha): 0 | Plant response rating (0 to 100), Wheat ([11]; 125 g ai/ha): 0 | Plant response rating, Wheat ([11]; 250 g ai/ha): 0 | Plant response rating, Wheat ([11]; 500 g ai/ha): 0 | Plant response rating (0 to 100), Crabgrass, Large ([12]; 62 g ai/ha): 5 | Plant response rating (0 to 100), Crabgrass, Large ([12]; 125 g ai/ha): 5 | Plant response rating, Crabgrass, Large ([12]; 250 g ai/ha): 5 | Plant response rating, Crabgrass, Large ([12]; 500 g ai/ha): 5 | Plant response rating (0 to 100), Morningglory ([13]; 62 g ai/ha): 0 | Plant response rating (0 to 100), Morningglory ([13]; 125 g ai/ha): 0 | Plant response rating, Morningglory ([13]; 250 g ai/ha): 0 | Plant response rating, Morningglory ([13]; 500 g ai/ha): 0 | Plant response rating (0 to 100), Nutsedge, Yellow ([14]; 62 g ai/ha): 0 | Plant response rating (0 to 100), Nutsedge, Yellow ([14]; 125 g ai/ha): 0 | Plant response rating, Nutsedge, Yellow ([14]; 250 g ai/ha): 0 | Plant response rating, Nutsedge, Yellow ([14]; 500 g ai/ha): 0

C=CCn1cc(C(=O)c2ccccc2)c(-c2cc(Cl)cc(Cl)c2)n1 [Compound 60]
Plant response rating (0 to 100), Barley ([1]; 31 g ai/ha): 0 | Plant response rating (0 to 100), Barley ([1]; 62 g ai/ha): 0 | Plant response rating (0 to 100), Barley ([1]; 125 g ai/ha): 0 | Plant response rating, Barley ([1]; 250 g ai/ha): 0 | Plant response rating (0 to 100), Windgrass ([2]; 62 g ai/ha): 0 | Plant response rating (0 to 100), Windgrass ([2]; 125 g ai/ha): 0 | Plant response rating, Windgrass ([2]; 250 g ai/ha): 0 | Plant response rating (0 to 100), Ragweed ([3]; 62 g ai/ha): 30 | Plant response rating (0 to 100), Ragweed ([3]; 125 g ai/ha): 30 | Plant response rating, Ragweed ([3]; 250 g ai/ha): 35 | Plant response rating (0 to 100), Johnsongrass ([4]; 62 g ai/ha): 0 | Plant response rating (0 to 100), Johnsongrass ([4]; 125 g ai/ha): 5 | Plant response rating, Johnsongrass ([4]; 250 g ai/ha): 5 | Plant response rating (0 to 100), Galium ([5]; 31 g ai/ha): 0 | Plant response rating (0 to 100), Galium ([5]; 62 g ai/ha): 0 | Plant response rating (0 to 100), Galium ([5]; 125 g ai/ha): 0 | Plant response rating, Galium ([5]; 250 g ai/ha): 0 | Plant response rating (0 to 100), Lambsquarters ([6]; 62 g ai/ha): 5 | Plant response rating (0 to 100), Lambsquarters ([6]; 125 g ai/ha): 40 | Plant response rating, Lambsquarters ([6]; 250 g ai/ha): 60 | Plant response rating (0 to 100), Velvetleaf ([7]; 62 g ai/ha): 70 | Plant response rating (0 to 100), Velvetleaf ([7]; 125 g ai/ha): 70 | Plant response rating, Velvetleaf ([7]; 250 g ai/ha): 80 | Plant response rating (0 to 100), Blackgrass ([8]; 31 g ai/ha): 0 | Plant response rating (0 to 100), Blackgrass ([8]; 62 g ai/ha): 0 | Plant response rating (0 to 100), Blackgrass ([8]; 125 g ai/ha): 0 | Plant response rating, Blackgrass ([8]; 250 g ai/ha): 0 | Plant response rating (0 to 100), Corn ([9]; 31 g ai/ha): 5 | Plant response rating (0 to 100), Corn ([9]; 62 g ai/ha): 5 | Plant response rating (0 to 100), Corn ([9]; 125 g ai/ha): 5 | Plant response rating, Corn ([9]; 250 g ai/ha): 5 | Plant response rating (0 to 100), Pigweed ([10]; 62 g ai/ha): 60 | Plant response rating (0 to 100), Pigweed ([10]; 125 g ai/ha): 65 | Plant response rating, Pigweed ([10]; 250 g ai/ha): 100 | Plant response rating (0 to 100), Wheat ([11]; 62 g ai/ha): 0 | Plant response rating (0 to 100), Wheat ([11]; 125 g ai/ha): 0 | Plant response rating, Wheat ([11]; 250 g ai/ha): 0 | Plant response rating (0 to 100), Crabgrass, Large ([12]; 31 g ai/ha): 0 | Plant response rating (0 to 100), Crabgrass, Large ([12]; 62 g ai/ha): 0 | Plant response rating (0 to 100), Crabgrass, Large ([12]; 125 g ai/ha): 5 | Plant response rating, Crabgrass, Large ([12]; 250 g ai/ha): 5 | Plant response rating (0 to 100), Morningglory ([13]; 62 g ai/ha): 0 | Plant response rating (0 to 100), Morningglory ([13]; 125 g ai/ha): 0 | Plant response rating, Morningglory ([13]; 250 g ai/ha): 0 | Plant response rating (0 to 100), Nutsedge, Yellow ([14]; 62 g ai/ha): 0 | Plant response rating (0 to 100), Nutsedge, Yellow ([14]; 125 g ai/ha): 0 | Plant response rating, Nutsedge, Yellow ([14]; 250 g ai/ha): 0
